Assay results published in patent publication US20110178104A1, “Anti-Heparin Compounds” (POLYMEDIX INC., priority 2010, published 2011).
Converted amounts (≈) assume the structure as drawn. Like-named read-outs stand apart in the source and are kept apart here. Starred links: 1 amine or outer side, 2 acyl side, 3 side chain; linkers in the order of their positions; H or OH if unused. Non-standard residues stand in square brackets, D forms with d. Residues, ends and D or L forms follow the SMILES beside them. *: point of attachment. NH(3-CONH2-4-OMe-phenyl) = COc1ccc(N*)cc1C(N)=O; 3Abz(6-OMe) = COc1ccc(N[*:1])cc1C(=O)[*:2]; X1 = O=C(O)COc1ccc(N[*:1])cc1C(=O)[*:2]

Columns and labels:
[1] = tested on: fondaparinux; assay: FXa amidolytic assay (Example 10), fondaparinux; details: for EC50: read-out: Fondap FXa EC50, fondaparinux 0.02 μg/mL, human antithrombin, bovine Factor Xa
[2] = tested on: Unfractionated heparin; assay: aPTT clotting assay, UFH 0.4 U/mL in plasma (Example 10); type: biochemical; details: unfractionated heparin 0.4 U/mL in plasma; aPTT clotting
Method: aPTT clotting Assay: Unfractionated heparin was mixed with plasma at a final concentration of 0.4 U/mL (or concentration which increases aPTT time to between 120 and 300 seconds). […] The ACL Elite Hemostasis analyzer (Beckman Coulter™) was used to add aPTT reagent (HemosIL SynthASil) to supplemented plasma. Clotting was initiated by addition of CaCl2 and time to clot was recorded.

[3] = tested on: HepG2 cells; assay: Cytotoxicity colorimetric assay, HepG2; type: cell-based, human; parameters: Cytotoxicity HepG2, percent printed in parentheses after the concentration: concentration or dose not given beside the values; details: at the concentration given
Method: (§1) This assay measures the bioreduction of a novel tetrazolium compound to a soluble formazan product by viable cells. HepG2 cells were seeded in 96 well plates at 3×10^4 cells/well in MEM medium with 10% fetal bovine serum (FBS) 24 hours prior to use. NIH/3T3 cells were seeded in 96 well plates at 2×10^4 cells/well in DMEM medium with 10% bovine calf serum (BCS) 24 hours prior to use. Cell monolayers were rinsed in serum-free media and incubated for one hour with test agent in serum-free media. After incubation, the media was replaced with serum supplemented media and live cells were measured using the Cell Titer 96 Aqueous […] Assay kit (Promega, Madison, Wis.). EC50 values were determined using a four parameter logistic equation: Y=Bottom+(Top-Bottom)/(1+10̂((LogEC50-X)*HillSlope)).

[4] = Cytotoxicity colorimetric assay, HepG2; type: cell-based, human; parameters: Cytotoxicity HepG2, percent printed in parentheses after the concentration: concentration or dose not given beside the values; details: human, HepG2 cells, one hour in serum-free media
Method: as §1

[5] = tested on: enoxaparin; assay: FXa amidolytic assay (Example 10), enoxaparin; details: read-out: Enox FXa EC50; enoxaparin 0.1 ug/ml; human antithrombin, bovine Factor Xa
[6] = tested on: tinzaparin; assay: FXa amidolytic assay (Example 10), tinzaparin; details: read-out: Tinzap FXa EC50; tinzaparin 0.1 ug/ml; human antithrombin, bovine Factor Xa
[7] = Cytotoxicity colorimetric assay, NIH/3T3; type: cell-based, mouse; details: mouse, NIH/3T3 cells, one hour in serum-free media
Method: as §1

[8] = tested on: isolated human erythrocytes; assay: cells; type: cell-based; details: Homo sapiens, Erythrocyte, 1 h, read-out: Hemolysis EC50
Summary of the method: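 Pooled human red cells, washed and diluted from a 0.22% stock suspension in TBS pH 7.4, were shaken with two-fold dilutions (1000 to 0.48 µg/ml) for 1 h at 37 °C. Released hemoglobin in the supernatant was read at OD405. EC50 came from a four-parameter logistic fit, with melittin as positive control.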

[9] = tested on: UFH; assay: FXa amidolytic assay (Example 10), UFH; details: read-out: Heparin FXa uM EC50; UFH 0.03 units/mL; human antithrombin, bovine Factor Xa

EC50 [1] [nM] | EC50 [2] [nM] | EC50 [5] [nM] | EC50 [6] [nM] | EC50 [9] [µM] | SMILES | Cytotoxicity HepG2, percent printed in parentheses after the concentration [3] [%] | EC50 at 1 h [4] [µg/mL] | EC50 at 1 h [7] [µg/mL] | EC50 ([8]; human RBC, 1 hour at 37° C.) [µg/mL] | EC50 [8] [µg/mL] | Potent LMWH-antagonists with superior anti-fondaparinux activity (summary) [1]
579 | 1720 | 134 | 113 | – | COc1ccc(NC(=O)[C@H](CCCCN)NC(=O)c2cc(NC(=O)[C@H](CCCCN)NC(=O)c3cc(NC(=O)[C@H](CCCCN)NC(=O)c4cc(NC(=O)[C@@H](N)CCCCN)ccc4OC)ccc3OC)ccc2OC)cc1C(=O)Nc1cccc(C(=O)O)c1 [Compound 275] | 50 | 1000 (≈ 802 µM) | – | – | – | –
129 | 2020 | 108 | 90 | 0.213 | COc1ccc(NC(=O)[C@H](CCCCN)NC(=O)c2cc(NC(=O)[C@H](CCCCN)NC(=O)c3cc(NC(=O)[C@H](CCCCN)NC(=O)c4cc(NC(=O)[C@H](CCCCN)NC(=O)c5c[nH]c6ccccc56)ccc4OC)ccc3OC)ccc2OC)cc1C(N)=O [Compound 349] | – | 236 (≈ 186 µM) | 108 (≈ 85.1 µM) | > 1000 | – | –
1600 | 1250 | 376 | 352 | 0.179 | COc1ccc(NC(=O)[C@H](CCCCN)NC(=O)c2cc(NC(=O)[C@H](CCCCN)NC(=O)c3cc(NC(=O)[C@H](CCCCN)NC(=O)c4cc(NC(=O)[C@@H](N)CCCCN)ccc4OC)ccc3OC)ccc2OC)cc1C(=O)N[C@@H](Cc1ccccc1)C(=O)O [Compound 263] | 60 | 255 (≈ 200 µM) | – | > 1000 | – | –
115 | 1390 | 90 | 73 | 0.189 | COC(=O)c1ccc(C(=O)N[C@@H](CCCCN)C(=O)Nc2ccc(OC)c(C(=O)N[C@@H](CCCCN)C(=O)Nc3ccc(OC)c(C(=O)N[C@@H](CCCCN)C(=O)Nc4ccc(OC)c(C(=O)N[C@@H](CCCCN)C(=O)Nc5ccc(OC)c(C(N)=O)c5)c4)c3)c2)cc1 [Compound 359] | – | > 1000 | > 1000 | > 1000 | – | –
934 | 2270 | 299 | 162 | 0.287 | COc1ccc(NC(=O)[C@H](CCCCN)NC(=O)c2cc(NC(=O)[C@H](CCCCN)NC(=O)c3cc(NC(=O)[C@H](CCCCN)NC(=O)c4cc(NC(=O)[C@H](CCCCN)NC(=O)[C@@H](N)Cc5c[nH]c6ccccc56)ccc4OC)ccc3OC)ccc2OCC(=O)O)cc1C(N)=O [Compound 352] (H-WK[3Abz(6-OMe)]K[3Abz(6-OMe)]K[X1]K-{NH(3-CONH2-4-OMe-phenyl)}) | – | 758 (≈ 559 µM) | > 1000 | > 1000 | – | –
209 | > 10000 | 256 | 257 | 0.242 | COc1ccc(NC(=O)[C@@H](CCCNC(=N)N)NC(=O)c2cc(NC(=O)[C@@H](CCCNC(=N)N)NC(=O)c3cc(NC(=O)[C@@H](CCCNC(=N)N)NC(=O)c4cc(NC(C)=O)ccc4OC)ccc3OC)ccc2OC)cc1C(=O)N[C@H](Cc1c[nH]c2ccccc12)C(=O)O [Compound 304] | 50 | – | – | ~500 (≈ 381 µM) | – | –
146 | 627 | 147 | 128 | 0.291 | COc1ccc(NC(=O)[C@H](CCCCN)NC(=O)c2cc(NC(=O)[C@H](CCCCN)NC(=O)c3cc(NC(=O)[C@H](CCCCN)NC(=O)c4cc(NC(=O)[C@H](CCCCN)NC(=O)c5c[nH]c6ccccc56)ccc4OC)ccc3OC)ccc2OCC(=O)O)cc1C(N)=O [Compound 350] | – | 425 (≈ 324 µM) | 150 (≈ 114 µM) | > 1000 | – | –

The remaining lines, values behind:

SMILES | EC50 [1] [nM] | EC50 [2] [nM] | EC50 [5] [nM] | EC50 [6] [nM] | EC50 [9] [µM] | Cytotoxicity HepG2, percent printed in parentheses after the concentration [3] [%] | EC50 at 1 h [4] [µg/mL] | EC50 at 1 h [7] [µg/mL] | EC50 ([8]; human RBC, 1 hour at 37° C.) [µg/mL] | EC50 [8] [µg/mL] | Potent LMWH-antagonists with superior anti-fondaparinux activity (summary) [1]
COc1ccc(NC(=O)[C@@H](CCCNC(=N)N)NC(=O)c2cc(NC(=O)[C@@H](CCCNC(=N)N)NC(=O)c3cc(NC(=O)[C@@H](CCCNC(=N)N)NC(=O)c4cc(NC(=O)[C@H](N)CCCNC(=N)N)ccc4OC)ccc3OC)ccc2OCC(=O)O)cc1C(N)=O [Compound 281] | 441 | 1810 | 129 | 111 | 0.108 | 50 | 1000 (≈ 780 µM) | – | > 1000 | – | –
COc1cc(OC)c(C(=O)N[C@H]2CC[C@@H](NC(=O)c3cc(C(=O)N[C@H]4CC[C@@H](NC(=O)c5cc(C(=O)NCCN)c(OC)cc5OC)CC4)c(OC)cc3OC)CC2)cc1C(=O)NCCN [Compound 381] | 493 | 2690 | 289 | 274 | 0.777 | – | 1130 (≈ 1230 µM) | 1080 (≈ 1180 µM) | 22.4 (≈ 24.4 µM) | – | –
COc1ccc(NC(=O)[C@@H](CCCNC(=N)N)NC(=O)c2cc(NC(=O)[C@@H](CCCNC(=N)N)NC(=O)c3cc(NC(=O)[C@@H](CCCNC(=N)N)NC(=O)c4cc(NC(C)=O)ccc4OC)ccc3OC)ccc2OC)cc1C(=O)N[C@H](Cc1ccc(O)cc1)C(=O)O [Compound 297] | 225 | 7120 | 293 | 318 | 0.215 | 60 | 300 (≈ 233 µM) | – | > 1000 | – | –
COc1ccc(NC(=O)[C@H](CCCCN)NC(=O)c2cc(NC(=O)[C@H](CCCCN)NC(=O)c3cc(NC(=O)[C@H](CCCCN)NC(=O)c4cc(NC(=O)[C@H](CCCCN)NC(=O)c5ccccc5)ccc4OC)ccc3OC)ccc2OC)cc1C(N)=O [Compound 353] | 407 | 1630 | 123 | 104 | 0.198 | – | > 1000 | ~100 (≈ 81.3 µM) | – | > 1000 | –
COc1cc(OCC(N)=O)c(C(=O)N[C@H]2CC[C@H](NC(=O)c3cc(C(=O)NCCN(C)C)c(OCCCCCN)cc3OCCCCCN)CC2)cc1C(=O)N[C@H]1CC[C@H](NC(=O)c2cc(C(=O)NCCN(C)C)c(OCCCCCN)cc2OCCCCCN)CC1 [Compound 379] | > 10000 | 1620 | 464 | 95 | 0.13 | – | > 1000 | 650 (≈ 499 µM) | > 1000 | – | –
COc1cc(OC)c(C(=O)N[C@H]2CC[C@@H](NC(=O)c3ccc(OCCCCCNC(=N)N)cc3OCCCCCNC(=N)N)CC2)cc1C(=O)N[C@H]1CC[C@@H](NC(=O)c2ccc(OCCCCCNC(=N)N)cc2OCCCCCNC(=N)N)CC1 [Compound 380] | 180 | 1690 | 89 | 71 | 0.164 | – | 81.3 (≈ 67.8 µM) | 43.2 (≈ 36 µM) | > 1000 | – | –
COc1ccc(NC(=O)[C@H](CCCCN)NC(=O)c2cc(NC(=O)[C@H](CCCCN)NC(=O)c3cc(NC(=O)[C@H](CCCCN)NC(=O)c4cc(NC(=O)[C@H](CCCCN)NC(=O)Cc5ccccc5)ccc4OC)ccc3OC)ccc2OC)cc1C(N)=O [Compound 355] | 800 | 1410 | 95 | 67 | 0.147 | – | 133 (≈ 107 µM) | 52 (≈ 41.8 µM) | – | > 1000 | –
COc1cc(OC)c(C(=O)N[C@H]2CC[C@H](NC(=O)c3cc(C(=O)N[C@H]4CC[C@H](NC(=O)c5cc(C(=O)NCCN)c(OC)cc5OC)CC4)c(OC)cc3OC)CC2)cc1C(=O)NCCN [Compound 346] | 146 | 8810 | 198 | 410 | 0.772 | – | > 1000 | > 1000 | > 1000 | – | –
COc1ccc(NC(=O)[C@H](CCCCN)NC(=O)c2cc(NC(=O)[C@H](CCCCN)NC(=O)c3cc(NC(=O)[C@H](CCCCN)NC(=O)c4cc(NC(=O)[C@H](CCCCN)NC(=O)c5ccccc5)ccc4OC)ccc3OC)ccc2OCC(=O)O)cc1C(N)=O [Compound 354] | 202 | 2200 | 117 | 109 | 0.214 | – | > 1000 | > 1000 | – | > 1000 | superior anti-fondaparinux activity
